The results in this text go back to PubChem BioAssay (NCI).

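Tested at 5 concentrations; 48 h exposure; 96-well plates; endpoints linearly interpolated, else capped at highest concentration. The concentration for 50% growth inhibition is given as GI50. TGI: concentration producing complete growth inhibition.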

Assay in all cases: inhibition of tumour cell growth, NCI panel, 48 h
Assay [1] deals with A498 renal.
Assay [2] concerns A549 NSCLC.
Assay [3] relates to BT-549 breast.
Assay [4] concerns HOP-62 NSCLC.
Assay [5] deals with HS 578T breast.
Assay [6] relates to KM12 colon.
The subject of assay [7] is SF-268 CNS.
Assay [8] concerns SR leukemia.
Assay [9] has as its system SW-620 colon.
Assay [10] deals with UACC-257 melanoma.

Turning to `COc1cc2c(cc1OCCCCCOc1cc3c(cc1OC)C(=O)N1CC(F)C[C@H]1C=N3)N=C[C@@H]1CC(F)CN1C2=O` (some centres not stated), the GI50 in [1] was 0.0863 µM; in assay [2] it was 0.158 µM; in assay [3], 0.0939 µM; in assay [4] it was less than 0.01 µM; in assay [5] it was 0.0581 µM; in assay [6] it was 0.369 µM. The GI50 in [7] is less than 0.01 µM; in [8], less than 0.01 µM; in assay [9], 0.0701 µM; in assay [10], 0.165 µM. Besides, the TGI in assay [1] worked out at 0.217 µM; in assay [2] it was 2.87 µM; in assay [3] it was 0.721 µM; in [4], 0.222 µM; in assay [5], 0.246 µM; in [6], 1.15 µM. In addition, the TGI amounted to 1.19 µM in assay [7], 0.452 µM in assay [9] and 0.444 µM in [10].
With `COc1cc2cc(C(=O)CCC(=O)O)sc2cc1OC`, the GI50 in assay [1] was 18.7 µM; in [2], greater than 100 µM; in assay [3] it was greater than 100 µM; in [4] it was greater than 100 µM; in assay [5] it was greater than 100 µM; in assay [6], greater than 100 µM. The GI50 in [7] is greater than 100 µM; in [8], 3.53 µM; in [9], greater than 100 µM; in assay [10], 33.4 µM. Moreover, the TGI was 45.4 µM in assay [1]; greater than 100 µM in [2]; greater than 100 µM in assay [3]; greater than 100 µM in [4]; greater than 100 µM in assay [5]; greater than 100 µM in assay [6]. Also, the TGI in assay [7], in assay [8], in [9] and in assay [10] was greater than 100 µM each time.
In the case of `Cn1cc(C2=C(c3cn(CCO)c4ccccc34)C(=O)NC2=O)c2ccccc21`, the GI50 was 1.45 µM in [1]; 3.05 µM in [2]; 3.14 µM in assay [3]; 3.36 µM in assay [4]; 1.49 µM in assay [5]; 2 µM in assay [6]. Further, the GI50 was 4.19 µM in assay [7], 1.02 µM in [8], 1.21 µM in assay [9] and 4.75 µM in assay [10]. Also, the TGI in assay [1] is 7.78 µM; in assay [2] it was greater than 25 µM; in assay [3], 11.9 µM; in [4] it was greater than 16.6 µM; in assay [5], 14.5 µM; in assay [6], 9.4 µM. For the same molecule, the TGI is 15.4 µM in assay [7], greater than 23.3 µM in [8], greater than 25 µM in [9] and 22.6 µM in [10].
Consider `O=C(Nc1ccc(F)cc1)Nc1ccccc1CNc1nc(Nc2ccc(OCCN3CCCC3)cc2)ncc1Cl`, for which the GI50 in [1] is 1.42 µM; in assay [2], 2.72 µM; in assay [3], 5.15 µM; in [4] it was 1.39 µM; in assay [5] it was 0.99 µM; in assay [6] it was 1.81 µM. Besides, the GI50 in assay [7] is 1.26 µM; in assay [8], 1.81 µM; in assay [9], 1.65 µM; in assay [10], 1.07 µM. Further, the TGI in assay [1] is 8.21 µM; in assay [2], 20.9 µM; in assay [3] it was 11.2 µM; in assay [4], 4.21 µM; in assay [5] it was 2.58 µM; in [6], 6.35 µM. Besides, the TGI turned out to be 4.84 µM in assay [7], 50 µM in assay [8], 6.84 µM in assay [9] and 2.35 µM in assay [10].
As to `Cc1nc(-c2ccccc2)c(Cc2ccccc2O)c(=O)[nH]1`, the TGI in [1], in [2], in [3], in assay [4], in assay [5] and in [6] was greater than 100 µM in each case. For the same molecule, the TGI in [7], in [8], in [9] and in assay [10] was greater than 100 µM each time.
For `C/C=C/C/C=C/CCC(=O)[C@H]1O[C@H]1C(N)=O`, the GI50 is 17.4 µM in [1]; 17.3 µM in assay [2]; 13 µM in [4]; 15.9 µM in assay [5]; 17.2 µM in assay [6]; 12.6 µM in assay [8]. The GI50 in [9] was 11.9 µM; in assay [10], 13.1 µM. Further, the TGI in assay [1] was 43.7 µM; in [2], 51.3 µM; in assay [3], 25.3 µM; in assay [4], 28.2 µM; in assay [5] it was greater than 100 µM; in [6] it was 32 µM. The TGI in assay [7] was 39.3 µM; in assay [8] it was greater than 100 µM; in assay [9], 27.9 µM; in [10], 27.3 µM.
For `O=[N+]([O-])c1ccccc1N=Nc1c(O)[nH]c2ccc(Br)cc12`, the TGI in [1] is greater than 45.8 µM; in assay [2], 21 µM; in [3] it was greater than 47.3 µM; in [4], 28.3 µM; in [5], 46.2 µM; in assay [6], 36.5 µM. In addition, the TGI in assay [7] is 51.9 µM; in assay [8], greater than 40.5 µM; in assay [9] it was greater than 62.4 µM; in assay [10], greater than 50.3 µM.
Regarding `Clc1ccc(/C=C/c2cc(N3CCOCC3)c3cc(Cl)c(Cl)cc3n2)cc1`, the GI50 was greater than 100 µM in assay [1]; greater than 100 µM in assay [2]; 0.706 µM in assay [3]; greater than 100 µM in assay [4]; greater than 100 µM in [5]; greater than 51.4 µM in [6]. For the same molecule, the GI50 is greater than 100 µM in assay [7], 14.9 µM in assay [8], greater than 100 µM in [9] and greater than 100 µM in assay [10]. Further, the TGI was greater than 100 µM in assay [1]; greater than 100 µM in assay [2]; greater than 40.2 µM in [3]; greater than 100 µM in assay [4]; greater than 100 µM in assay [5]; greater than 100 µM in assay [6]. Besides, the TGI was greater than 100 µM in assay [7], greater than 61.8 µM in [8], greater than 100 µM in assay [9] and greater than 100 µM in [10].
